Results as given in article PMC6547681 (Nature Communications, 2019).
“And” between values parts separate entries of the source, which are not always exact repeats. Equal values may be shown once.

System: BCL-2 WT
Test: Steady-state competition SPR against immobilised BIMBH3 peptide, BCL-2 WT
Assay type: binding, human
Procedure: SPR experiments were performed as previously described. […] The lowest concentrations used in direct binding experiments were 1 nM for BIAcore 4000 and 0.1 nM for BIAcore S200 instruments, concentrations below these were below the sensitivity thresholds for the instruments. […] Direct binding experiments were fitted to a 1:1 binding site kinetic model, fitting on and off rates, in BIAevaluation software. For competition experiments steady-state responses were determined in BIAevaluation software according to the software defaults in affinity evaluation mode averaging responses for 5 sec. […] All affinity measurements were performed in at least two independent experiments using independent protein preparations.

O=C(c1cc(-c2cc3c(cc2C(=O)N2Cc4ccccc4C[C@H]2CN2CCOCC2)OCO3)n2c1CCCC2)N(c1ccccc1)c1ccc(O)cc1 [S55746]
S55746 binding weaker than venetoclax (BCL-2 WT): > 10 fold and 10 fold
Raw data values in Figure 3f (SPR response) (S55746 concentration 20, BCL-2 concentration 1 nM, independent experiment 2): 2.733
Raw data values in Figure 3f (SPR response) (S55746 concentration 20, BCL-2 concentration 3 nM, independent experiment 2): 5.054
Raw data values in Figure 3f (SPR response) (S55746 concentration 20, BCL-2 concentration 4 nM, independent experiment 2): 7.385
Raw data values in Figure 3f (SPR response) (S55746 concentration 20, BCL-2 concentration 6 nM, independent experiment 2): 10.4479
Raw data values in Figure 3f (SPR response) (S55746 concentration 20, BCL-2 concentration 8 nM, independent experiment 2): 13.83
Raw data values in Figure 3f (SPR response) (S55746 concentration 20, BCL-2 concentration 9 nM, independent experiment 2): 18.2167
Raw data values in Figure 3f (SPR response) (S55746 concentration 20, BCL-2 concentration 10 nM, independent experiment 1): 14.9942
Raw data values in Figure 3f (SPR response) (S55746 concentration 20, BCL-2 concentration 10 nM, independent experiment 3): 5.545
Raw data values in Figure 3f (SPR response) (S55746 concentration 20, BCL-2 concentration 11 nM, independent experiment 2): 22.9055
Raw data values in Figure 3f (SPR response) (S55746 concentration 20, BCL-2 concentration 12 nM, independent experiment 2): 29.6258
Raw data values in Figure 3f (SPR response) (S55746 concentration 20, BCL-2 concentration 16 nM, independent experiment 2): 52.2757
Raw data values in Figure 3f (SPR response) (S55746 concentration 20, BCL-2 concentration 20 nM, independent experiment 1): 62.0337
Raw data values in Figure 3f (SPR response) (S55746 concentration 20, BCL-2 concentration 20 nM, independent experiment 3): 30.5673
Raw data values in Figure 3f (SPR response) (S55746 concentration 20, BCL-2 concentration 24 nM, independent experiment 2): 194.711
Raw data values in Figure 3f (SPR response) (S55746 concentration 20, BCL-2 concentration 30 nM, independent experiment 1): 78.5463
Raw data values in Figure 3f (SPR response) (S55746 concentration 20, BCL-2 concentration 30 nM, independent experiment 3): 46.9544
Raw data values in Figure 3f (SPR response) (S55746 concentration 20, BCL-2 concentration 40 nM, independent experiment 1): 84.3215
Raw data values in Figure 3f (SPR response) (S55746 concentration 20, BCL-2 concentration 40 nM, independent experiment 2): 278.992
Raw data values in Figure 3f (SPR response) (S55746 concentration 20, BCL-2 concentration 40 nM, independent experiment 3): 55.2753
Raw data values in Figure 3f (SPR response) (S55746 concentration 20, BCL-2 concentration 50 nM, independent experiment 1): 87.889
Raw data values in Figure 3f (SPR response) (S55746 concentration 20, BCL-2 concentration 50 nM, independent experiment 3): 61.4638
Raw data values in Figure 3f (SPR response) (S55746 concentration 20, BCL-2 concentration 60 nM, independent experiment 1): 89.8444
Raw data values in Figure 3f (SPR response) (S55746 concentration 20, BCL-2 concentration 60 nM, independent experiment 3): 66.5259
Raw data values in Figure 3f (SPR response) (S55746 concentration 20, BCL-2 concentration 70 nM, independent experiment 1): 91.3513
Raw data values in Figure 3f (SPR response) (S55746 concentration 20, BCL-2 concentration 70 nM, independent experiment 3): 70.0896
Raw data values in Figure 3f (SPR response) (S55746 concentration 20, BCL-2 concentration 80 nM, independent experiment 1): 91.9809
Raw data values in Figure 3f (SPR response) (S55746 concentration 20, BCL-2 concentration 80 nM, independent experiment 3): 71.977
Raw data values in Figure 3f (SPR response) (S55746 concentration 20, BCL-2 concentration 100 nM, independent experiment 1): 93.8895
Raw data values in Figure 3f (SPR response) (S55746 concentration 20, BCL-2 concentration 100 nM, independent experiment 3): 77.7314
Raw data values in Figure 3f (SPR response) (S55746 concentration 20, BCL-2 concentration 150 nM, independent experiment 1): 96.8618
Raw data values in Figure 3f (SPR response) (S55746 concentration 20, BCL-2 concentration 150 nM, independent experiment 3): 85.769
Raw data values in Figure 3f (SPR response) (S55746 concentration 20, BCL-2 concentration 200 nM, independent experiment 1): 97.7551
Raw data values in Figure 3f (SPR response) (S55746 concentration 20, BCL-2 concentration 200 nM, independent experiment 3): 90.6286
Raw data values in Figure 3f (SPR response) (S55746 concentration 40, BCL-2 concentration 1 nM, independent experiment 2): 1.748
Raw data values in Figure 3f (SPR response) (S55746 concentration 40, BCL-2 concentration 3 nM, independent experiment 2): 3.274
Raw data values in Figure 3f (SPR response) (S55746 concentration 40, BCL-2 concentration 4 nM, independent experiment 2): 4.7441
Raw data values in Figure 3f (SPR response) (S55746 concentration 40, BCL-2 concentration 6 nM, independent experiment 2): 5.884
Raw data values in Figure 3f (SPR response) (S55746 concentration 40, BCL-2 concentration 8 nM, independent experiment 2): 7.971
Raw data values in Figure 3f (SPR response) (S55746 concentration 40, BCL-2 concentration 9 nM, independent experiment 2): 9.582
Raw data values in Figure 3f (SPR response) (S55746 concentration 40, BCL-2 concentration 10 nM, independent experiment 1): 5.808
Raw data values in Figure 3f (SPR response) (S55746 concentration 40, BCL-2 concentration 10 nM, independent experiment 3): 2.581
Raw data values in Figure 3f (SPR response) (S55746 concentration 40, BCL-2 concentration 11 nM, independent experiment 2): 11.5501
Raw data values in Figure 3f (SPR response) (S55746 concentration 40, BCL-2 concentration 12 nM, independent experiment 2): 13.3285
Raw data values in Figure 3f (SPR response) (S55746 concentration 40, BCL-2 concentration 16 nM, independent experiment 2): 18.1319
Raw data values in Figure 3f (SPR response) (S55746 concentration 40, BCL-2 concentration 20 nM, independent experiment 1): 14.077
Raw data values in Figure 3f (SPR response) (S55746 concentration 40, BCL-2 concentration 20 nM, independent experiment 3): 5.653
Raw data values in Figure 3f (SPR response) (S55746 concentration 40, BCL-2 concentration 24 nM, independent experiment 2): 35.953
Raw data values in Figure 3f (SPR response) (S55746 concentration 40, BCL-2 concentration 30 nM, independent experiment 1): 36.4319
Raw data values in Figure 3f (SPR response) (S55746 concentration 40, BCL-2 concentration 30 nM, independent experiment 3): 15.4804
Raw data values in Figure 3f (SPR response) (S55746 concentration 40, BCL-2 concentration 40 nM, independent experiment 1): 75.4873
